Data published in ChEMBL document CHEMBL3039007, “Structure-based identification of OATP1B1/3 inhibitors” (Mol Pharmacol, 2013).

Legend:
[1] = target: T1, Solute carrier organic anion transporter family member 1B3 (Homo sapiens, UniProt Q9NPD5); details: chinese hamster, cho, 10 µM
T1 sequence (Q9NPD5 whole entry): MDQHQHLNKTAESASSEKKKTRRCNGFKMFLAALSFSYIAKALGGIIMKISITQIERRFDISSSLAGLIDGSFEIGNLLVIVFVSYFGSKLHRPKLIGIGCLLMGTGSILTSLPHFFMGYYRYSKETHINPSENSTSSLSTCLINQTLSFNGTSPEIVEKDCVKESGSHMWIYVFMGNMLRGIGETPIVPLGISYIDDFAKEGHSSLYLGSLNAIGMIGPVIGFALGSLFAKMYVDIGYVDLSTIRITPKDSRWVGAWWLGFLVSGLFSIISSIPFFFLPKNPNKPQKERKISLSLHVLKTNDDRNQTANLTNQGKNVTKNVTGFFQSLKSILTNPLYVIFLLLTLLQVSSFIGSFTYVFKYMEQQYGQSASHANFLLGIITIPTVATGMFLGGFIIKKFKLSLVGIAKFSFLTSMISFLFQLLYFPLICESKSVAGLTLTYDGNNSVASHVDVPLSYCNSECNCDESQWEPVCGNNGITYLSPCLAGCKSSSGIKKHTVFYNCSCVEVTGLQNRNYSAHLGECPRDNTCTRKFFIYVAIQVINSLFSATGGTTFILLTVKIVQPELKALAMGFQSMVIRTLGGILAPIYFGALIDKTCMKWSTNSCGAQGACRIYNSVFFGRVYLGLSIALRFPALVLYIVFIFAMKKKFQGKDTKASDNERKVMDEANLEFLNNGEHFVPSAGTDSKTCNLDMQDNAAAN

[2] = target: T2, Solute carrier organic anion transporter family member 1B1 (Homo sapiens, UniProt Q9Y6L6); details: chinese hamster, cho, 10 µM
T2 sequence (Q9Y6L6 whole entry): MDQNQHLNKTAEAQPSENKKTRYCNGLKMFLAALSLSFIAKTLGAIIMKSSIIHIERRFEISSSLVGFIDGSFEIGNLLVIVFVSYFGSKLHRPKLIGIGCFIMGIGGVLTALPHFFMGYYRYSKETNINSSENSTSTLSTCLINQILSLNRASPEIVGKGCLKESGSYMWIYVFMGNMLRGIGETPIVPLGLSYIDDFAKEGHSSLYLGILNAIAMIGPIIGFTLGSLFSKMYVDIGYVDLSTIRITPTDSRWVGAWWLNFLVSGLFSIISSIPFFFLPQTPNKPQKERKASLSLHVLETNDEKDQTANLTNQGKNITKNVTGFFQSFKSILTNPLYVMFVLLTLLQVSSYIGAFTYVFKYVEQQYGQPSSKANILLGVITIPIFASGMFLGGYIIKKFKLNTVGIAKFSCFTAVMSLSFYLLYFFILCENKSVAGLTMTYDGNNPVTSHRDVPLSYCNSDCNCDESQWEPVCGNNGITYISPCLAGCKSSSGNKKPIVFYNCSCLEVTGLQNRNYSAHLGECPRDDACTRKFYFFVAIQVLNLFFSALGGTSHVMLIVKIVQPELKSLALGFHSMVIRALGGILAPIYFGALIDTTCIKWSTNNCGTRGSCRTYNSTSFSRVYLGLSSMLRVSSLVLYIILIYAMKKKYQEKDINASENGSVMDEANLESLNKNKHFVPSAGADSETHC

SMILES | residual activity [1] | residual activity [2]
O=C1CC[C@]23/C=C/C(=O)NCCCCNCCCNC(=O)/C=C\c4ccc(c2c4)O[C@@H]3C1 | 100.4% | 70.42%
O=C1CC(c2ccccc2)Oc2ccccc21 (centres undefined) [FLAVANONE] | 79.68% | 76.99%
CC[C@@H](C)C(=O)O[C@H]1[C@H](O)[C@H]2[C@@H](CN3C[C@@H](C)CC[C@H]3[C@@]2(C)O)[C@@H]2C[C@]34O[C@]5(O)[C@@H](OC(=O)[C@@](C)(O)CC)CC[C@@]3(C)[C@@H]5[C@@H](OC(C)=O)[C@@H](OC(C)=O)[C@H]4[C@@]21O [PROTOVERATRINE A] | 77.86% | 93.58%
CC[C@@H](CO)NC(=O)[C@@H]1C=C2c3cccc4[nH]cc(c34)C[C@H]2N(C)C1.O=C(O)/C=C\C(=O)O [METHYLERGONOVINE MALEATE] | 108.9% | 77.53%
CN(C)CCC=C1c2ccccc2CCc2ccccc21.Cl [AMITRIPTYLINE HYDROCHLORIDE] | 80.45% | 53.22%
CC(C)NCC(O)c1ccc2ccccc2c1.Cl (centres undefined) | 87.91% | 83.88%
COc1ccc2ccc(=O)oc2c1 [HERNIARIN] | 104.5% | 148.3%
O=C(CCCCC(=O)Nc1c(I)cc(I)c(C(=O)O)c1I)Nc1c(I)cc(I)c(C(=O)O)c1I [IODIPAMIDE] | 60.87% | 90.55%
COC(=O)NC(=S)Nc1ccccc1NC(=S)NC(=O)OC [THIOPHANATE METHYL] | 92.95% | 119%
CCCCCCCCCCCCCCCC(=O)OC/C=C(C)/C=C/C=C(C)/C=C/C1=C(C)CCCC1(C)C [VITAMIN A PALMITATE] | 85.92% | 77.04%
C/C=C(/C)C(=O)O[C@@H]1c2c(ccc3ccc(=O)oc23)OC(C)(C)[C@@H]1OC(C)=O [PTERYXIN] | 114.3% | 84.8%
CC(C)c1c(O)c(-c2cc3c(c(C(C)C)c2O)CC[C@H]2C(C)(C)CCC[C@]32C)cc2c1CC[C@H]1C(C)(C)CCC[C@]21C | 91.38% | 64.65%
C[C@]12CC[C@H](Cl)C[C@@H]1CC[C@@H]1[C@@H]2CC[C@]2(C)C(=O)CC[C@@H]12 | 70.61% | 67.79%
CC(=O)O[C@@H]1C[C@H]2C(C)(C)C=CC(=O)[C@@]2(C)[C@H]2CC[C@]3(C)[C@@H](c4ccoc4)OC(=O)[C@H]4O[C@]43[C@]21C | 46.89% | 18.57%
COP(=O)(OC)OC(Br)C(Cl)(Cl)Br (centres undefined) [NALED] | 110% | 82.68%
CCOC(=O)[C@H](CCc1ccccc1)N[C@@H](C)C(=O)N1[C@H](C(=O)O)C[C@H]2CCCC[C@@H]21 [TRANDOLAPRIL] | 102.1% | 118%
CCCCC(=O)O[C@H]1CC[C@H]2[C@@H]3CCc4cc(O)ccc4[C@H]3CC[C@]12C [ESTRADIOL VALERATE] | 129.8% | 291.5%
Cl.OCCN1CCN(CCCN2c3ccccc3Sc3ccc(C(F)(F)F)cc32)CC1 | 93.03% | 153.1%
CN(C)[C@@H]1C(O)=C(C(N)=O)C(=O)[C@@]2(O)C(O)=C3C(=O)c4c(O)cccc4[C@@](C)(O)[C@H]3C[C@@H]12.Cl [TETRACYCLINE HYDROCHLORIDE] | 97.72% | 118.1%
CC1=C(C(=O)O)N2C(=O)[C@@H](NC(=O)[C@H](N)c3ccc(O)cc3)[C@H]2SC1 [CEFADROXIL] | 101.2% | 88.52%
COc1ccc(-c2coc3cc(O)cc(O)c3c2=O)cc1 [BIOCHANIN] | 113.5% | 98.38%
C[N+](C)(C)CCOC(N)=O.[Cl-] [CARBACHOL] | 105.7% | 120.9%
